Data: patent US20240299367A1, “METHODS OF TREATING ACUTE RESPIRATORY DISTRESS SYNDROME WITH ACTIVATORS OF TIE-2” (AERPIO PHARMACEUTICALS, INC., priority 2020, published 2024)
Read-outs that look alike come from different tables or passages of the source.

Legend:
[1] = target: HPTPβ (Homo sapiens (Human), UniProt P23467); assay: HPTPβ inhibitory activity (IC50); assay type: biochemical
[2] = test system: polymicrobial septic shock; assay: Cecal ligation and puncture (CLP) model of sepsis, survival; assay type: in vivo, Sprague Dawley rats; conditions: rats, SC BID days 1-5, monitored 10 days, Cpd 1 10 mg/kg, IM 20 mg/kg
[3] = test system: SARS-COV, MERS-COV, and SARS-CoV-2; conditions: cell culture and animal models; cited from earlier work
[4] = 0.9% saline, cited from earlier work
[5] = Urine albumin/creatinine ratio (UACR) in Phase 2 and Phase 2b studies; assay type: in vivo, human; conditions: Phase 2, patients with evidence of diabetic nephropathy

Chain of HPTPβ (P23467 23-1997): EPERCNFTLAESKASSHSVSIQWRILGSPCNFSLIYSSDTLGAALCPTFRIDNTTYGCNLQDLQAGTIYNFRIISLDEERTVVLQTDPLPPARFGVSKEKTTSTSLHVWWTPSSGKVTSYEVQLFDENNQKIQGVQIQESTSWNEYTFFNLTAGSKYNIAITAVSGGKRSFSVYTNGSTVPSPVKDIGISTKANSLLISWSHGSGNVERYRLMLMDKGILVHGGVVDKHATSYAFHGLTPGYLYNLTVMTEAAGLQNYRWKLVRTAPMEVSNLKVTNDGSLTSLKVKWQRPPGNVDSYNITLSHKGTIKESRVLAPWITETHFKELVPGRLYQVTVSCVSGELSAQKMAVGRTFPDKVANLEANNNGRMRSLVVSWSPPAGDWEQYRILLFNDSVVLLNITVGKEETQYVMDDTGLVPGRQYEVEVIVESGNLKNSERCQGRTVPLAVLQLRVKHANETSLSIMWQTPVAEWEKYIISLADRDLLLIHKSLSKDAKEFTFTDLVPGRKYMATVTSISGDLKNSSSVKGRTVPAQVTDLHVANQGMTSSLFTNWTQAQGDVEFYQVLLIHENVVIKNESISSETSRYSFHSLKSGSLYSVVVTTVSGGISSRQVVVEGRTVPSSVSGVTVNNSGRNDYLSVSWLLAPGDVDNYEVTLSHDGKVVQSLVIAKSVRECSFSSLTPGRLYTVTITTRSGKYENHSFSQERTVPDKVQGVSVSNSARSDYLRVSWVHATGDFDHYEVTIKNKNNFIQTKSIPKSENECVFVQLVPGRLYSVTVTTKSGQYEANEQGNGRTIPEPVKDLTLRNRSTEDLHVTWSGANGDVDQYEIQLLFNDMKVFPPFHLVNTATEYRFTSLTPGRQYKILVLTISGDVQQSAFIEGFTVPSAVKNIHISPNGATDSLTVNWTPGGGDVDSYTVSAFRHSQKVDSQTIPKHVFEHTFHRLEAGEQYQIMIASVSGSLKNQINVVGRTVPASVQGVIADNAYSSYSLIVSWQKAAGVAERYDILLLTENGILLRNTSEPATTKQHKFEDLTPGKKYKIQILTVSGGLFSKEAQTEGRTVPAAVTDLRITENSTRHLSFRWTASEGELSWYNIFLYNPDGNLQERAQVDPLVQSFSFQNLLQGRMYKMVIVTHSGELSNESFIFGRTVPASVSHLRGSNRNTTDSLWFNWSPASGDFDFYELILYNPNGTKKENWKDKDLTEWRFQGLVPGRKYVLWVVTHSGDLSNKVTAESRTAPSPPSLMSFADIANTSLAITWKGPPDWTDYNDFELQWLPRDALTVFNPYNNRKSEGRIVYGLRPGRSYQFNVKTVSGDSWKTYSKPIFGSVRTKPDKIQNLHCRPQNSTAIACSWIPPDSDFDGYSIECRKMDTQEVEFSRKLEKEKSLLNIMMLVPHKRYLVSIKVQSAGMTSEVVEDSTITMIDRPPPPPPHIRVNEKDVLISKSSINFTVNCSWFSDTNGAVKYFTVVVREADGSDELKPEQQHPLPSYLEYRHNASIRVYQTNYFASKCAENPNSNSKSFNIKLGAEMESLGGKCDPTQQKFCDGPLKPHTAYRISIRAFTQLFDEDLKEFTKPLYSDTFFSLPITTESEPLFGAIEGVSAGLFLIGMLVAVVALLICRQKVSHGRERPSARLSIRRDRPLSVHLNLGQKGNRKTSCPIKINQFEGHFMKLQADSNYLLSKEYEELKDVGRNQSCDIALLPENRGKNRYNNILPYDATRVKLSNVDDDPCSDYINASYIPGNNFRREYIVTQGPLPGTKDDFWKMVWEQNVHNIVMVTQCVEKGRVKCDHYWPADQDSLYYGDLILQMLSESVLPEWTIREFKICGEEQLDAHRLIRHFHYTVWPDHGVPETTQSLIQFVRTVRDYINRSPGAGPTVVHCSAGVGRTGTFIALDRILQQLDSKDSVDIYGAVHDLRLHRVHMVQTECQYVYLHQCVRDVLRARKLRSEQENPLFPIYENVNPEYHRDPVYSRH

COC(=O)Cc1csc([C@H](Cc2ccc(NS(=O)(=O)O)cc2)NC(=O)OC(C)(C)C)n1 [AA70, (S)-4-(2-(tert-Butoxycarbonyl)-2-(4-(2-(2-methoxy-2-oxoyethylamino)-2-oxoethyl)thiazole-2-yl)ethyl)phenylsulfamic acid]
IC50 [1]: 132 nM

C[C@@H](O)[C@H]1C(=O)N2C(C(=O)O)=C(SCCN=CN)C[C@H]12 [IM, imipenem]
survival [2]: 81%

Cc1nc([C@H](Cc2ccc(NS(=O)(=O)O)cc2)NC(=O)OC(C)(C)C)cs1 [AA64]
IC50 [1]: 33 nM

CCC(CC)COC(=O)[C@H](C)N[P@](=O)(OC[C@H]1O[C@@](C#N)(c2ccc3c(N)ncnn23)[C@H](O)[C@@H]1O)Oc1ccccc1 [Remdesivir]
antiviral activity [3]: exhibits activity in cell culture and animal models
storage time of diluted solution ([4]; refrigerated (2° C. to 8° C.)): 24 h
storage time of diluted solution ([4]; room temperature (20° C. to 25° C.)): up to 4 hours

B1: ranibizumab (antibody, chains of the INN, looked up, V domains shown)
VH: EVQLVESGGGLVQPGGSLRLSCAASGYDFTHYGMNWVRQAPGKGLEWVGWINTYTGEPTYAADFKRRFTFSLDTSKSTAYLQMNSLRAEDTAVYYCAKYPYYYGTSHWYFDVWGQGTLVTVSS
VL: DIQLTQSPSSLSASVGDRVTITCSASQDISNYLNWYQQKPGKAPKVLIYFTSSLHSGVPSRFSGSGSGTDFTLTISSLQPEDFATYYCQQYSTVPWTFGQGTKVEIK
modifications: Fab
notes: anti-VEGF agent, standard-of-care intravitreal injection
UACR change [5]: increase
